Data reported in patent publication US8889671B2, “Compounds and methods for treating bacterial infections” (AstraZeneca AB, priority 2013, dated 2014).
In brackets after ≈: the same amount, converted by molar mass. Read-outs that look alike come from different tables or passages of the source.

Key:
[1] = system: Haemophilus influenzae; test: Susceptibility testing (MIC) Assay 2, broth microdilution; format: cell-based; settings: ATCC51907, Haemophilus influenzae, ATCC 51907, in vivo strain, read-out: Hin MIC
[2] = system: Klebsiella pneumoniae; test: as above; format: cell-based; settings: clinical isolate, mucoid, read-out: Kpn MIC
[3] = system: Escherichia coli; test: as above; format: cell-based; settings: K12, read-out: Eco MIC
[4] = system: Pseudomonas aeruginosa; test: as above; format: cell-based; settings: PAO1, read-out: Pae MIC
[5] = molecular target: Escherichia coli DNA gyrase A/B tetramer (Escherichia coli (strain K12), UniProt P0AES4+P0AES6); test: DNA gyrase supercoiling activity fluorescence polarisation assay; format: biochemical; settings: Eco Gyr FP Mean IC50, E. coli DNA gyrase supercoiling, 0.3 mM ATP
How it was run: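 IC50 derived by nonlinear regression from BODIPY-FL fluorescence anisotropy, read 60 min after quenching with labelled triplex-forming probe (pH 3.5). Reaction: 5 nM gyrase tetramer, 130 micrograms/mL relaxed plasmid, 0.3 mM ATP, 4 mM MgCl2, pH 7.5, typically 30 min at ambient temperature, 5-10 compound concentrations.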

[6] = system: Streptococcus pyogenes; test: Susceptibility testing (MIC) Assay 1, broth microdilution; format: cell-based; settings: Streptococcus pyogenes, Streptococcus pyrgenes, in vivo strain; read-out: Spy MIC
[7] = system: Streptococcus pneumoniae; test: as above; format: cell-based
[8] = system: Staphylococcus aureus; test: as above; format: cell-based; settings: Staphylococcus aureus
[9] = in vivo strain (footnote b), read-out: Spn(b) MIC
[10] = in vivo strain (footnote c), read-out: Spn(c) MIC
[11] = Staphylococcus aureus in vivo strain, MSQS, read-out: Sau(d) MIC
[12] = in vivo strain, MRQR, read-out: Sau(e) MIC

Compound	MIC [1] [µM]	MIC [2] [µM]	MIC [3] [µM]	MIC [4] [µM]	IC50 [5] [nM]	MIC [6] [µM]	MIC [7, 9] [µM]	MIC [7, 10] [µM]	MIC [8, 11] [µM]	MIC [8, 12] [µM]	MIC ([8]; serum, read-out: Sau(f) MIC) [µM]
C=C[C@H]1COC(=O)N1c1noc2c(F)c3c(cc12)CC1(C(=O)NC(=O)NC1=O)[C@H]1[C@H](C)O[C@H](C)CN31 [Example 39, (2R,4S,4aS)-11-Fluoro-2,4-dimethyl-8-((S)-2-oxo-4-vinyloxazolidin-3-yl)-2,4,4a,6-tetrahydro-1H,1′H-spiro[isoxazolo[4,5-g][1,4]oxazino[4,3-a]quinoline-5,5′-pyrimidine]-2′,4′,6′(3′H)-trione]	0.39 (≈ 0.195 µg/mL)	200 (≈ 99.9 µg/mL)	25 (≈ 12.5 µg/mL)	> 200	97	0.39 (≈ 0.195 µg/mL)	0.78 (≈ 0.39 µg/mL)	0.78 (≈ 0.39 µg/mL)	0.39 (≈ 0.195 µg/mL)	1.6 (≈ 0.799 µg/mL)	1.6 (≈ 0.799 µg/mL)
C[C@@H]1CN2c3c(cc4c(N5C(=O)OC[C@@H]5C)noc4c3Cl)CC3(C(=O)NC(=O)NC3=O)[C@H]2[C@H](C)O1 [Example 66, (2R,4S,4aS)-11-Chloro-2,4-dimethyl-8-((S)-4-methyl-2-oxooxazolidin-3-yl)-2,4,4a,6-tetrahydro-1H, 1′H-spiro[isoxazolo[4,5-g][1,4]oxazino[4,3-a]quinoline-5,5′-pyrimidine]-2′,4′,6′(3′H)-trione]	0.78 (≈ 0.393 µg/mL)	100 (≈ 50.4 µg/mL)	6.2 (≈ 3.12 µg/mL)	> 200	170	0.39 (≈ 0.197 µg/mL)	0.39 (≈ 0.197 µg/mL)	0.78 (≈ 0.393 µg/mL)	0.39 (≈ 0.197 µg/mL)	0.78 (≈ 0.393 µg/mL)	0.78 (≈ 0.393 µg/mL)
COC[C@H]1COC(=O)N1c1noc2c(F)c3c(cc12)CC1(C(=O)NC(=O)NC1=O)[C@H]1[C@H](C)O[C@H](C)CN31 (single isomer, unassigned) [Example 17]	0.39 (≈ 0.202 µg/mL)	> 200	50 (≈ 25.9 µg/mL)	> 200	140	0.55 (≈ 0.285 µg/mL)	0.55 (≈ 0.285 µg/mL)	0.55 (≈ 0.285 µg/mL)	0.28 (≈ 0.145 µg/mL)	0.78 (≈ 0.404 µg/mL)	0.39 (≈ 0.202 µg/mL)
C[C@@H]1CN2c3c(cc4c(N5C(=O)OC[C@@H]5[C@H](C)O)noc4c3F)CC3(C(=O)NC(=O)NC3=O)[C@H]2[C@H](C)O1 [Example 70]	1.6 (≈ 0.828 µg/mL)	> 200	200 (≈ 103 µg/mL)	> 200	610	1.6 (≈ 0.828 µg/mL)	1.6 (≈ 0.828 µg/mL)	3.1 (≈ 1.6 µg/mL)	12 (≈ 6.21 µg/mL)	50 (≈ 25.9 µg/mL)	25 (≈ 12.9 µg/mL)
CC[C@@H]1CN(c2noc3c(F)c4c(cc23)CC2(C(=O)NC(=O)NC2=O)[C@H]2[C@H](C)O[C@H](C)CN42)C(=O)O1 [Example 14, (2R,4S,4aS)-8-[(5R)-5-Ethyl-2-oxo-1,3-oxazolidin-3-yl]-11-fluoro-2,4-dimethyl-1,2,4,4a-tetrahydro-2′H,6H-spiro[1,4-oxazino[4,3-a][1,2]oxazolo[4,5-g]quinoline-5,5′-pyrimidine]-2′,4′,6′(1′H,3′H)-trione]	0.78 (≈ 0.391 µg/mL)	200 (≈ 100 µg/mL)	25 (≈ 12.5 µg/mL)	> 200	570	0.78 (≈ 0.391 µg/mL)	0.78 (≈ 0.391 µg/mL)	0.78 (≈ 0.391 µg/mL)	0.39 (≈ 0.196 µg/mL)	0.78 (≈ 0.391 µg/mL)	1.6 (≈ 0.802 µg/mL)
COC[C@H]1CN(c2noc3c(F)c4c(cc23)CC2(C(=O)NC(=O)NC2=O)[C@H]2[C@H](C)O[C@H](C)CN42)C(=O)O1 [Example 36]	1.6 (≈ 0.828 µg/mL)	> 200	100 (≈ 51.7 µg/mL)	> 200	590	0.78 (≈ 0.404 µg/mL)	1.6 (≈ 0.828 µg/mL)	1.6 (≈ 0.828 µg/mL)	0.78 (≈ 0.404 µg/mL)	3.1 (≈ 1.6 µg/mL)	1.6 (≈ 0.828 µg/mL)
C[C@@H]1CN2c3c(cc4c(N5C(=O)OC[C@@H]5CCCO)noc4c3F)CC3(C(=O)NC(=O)NC3=O)[C@H]2[C@H](C)O1 [Example 29, (2R,4S,4aS)-11-Fluoro-8-((S)-4-(3-hydroxypropyl)-2-oxooxazolidin-3-yl)-2,4-dimethyl-2,4,4a,6-tetrahydro-1H,1′H-spiro[isoxazolo[4,5-g][1,4]oxazino[4,3-a]quinoline-5,5′-pyrimidine]-2′,4′,6′(3′H)-trione]	0.78 (≈ 0.415 µg/mL)	> 200	100 (≈ 53.1 µg/mL)	> 200	270	0.39 (≈ 0.207 µg/mL)	0.39 (≈ 0.207 µg/mL)	0.78 (≈ 0.415 µg/mL)	3.1 (≈ 1.65 µg/mL)	12 (≈ 6.38 µg/mL)	3.1 (≈ 1.65 µg/mL)
C[C@@H]1CN2c3c(cc4c(N5C(=O)OC[C@@H]5CS(C)(=O)=O)noc4c3F)CC3(C(=O)NC(=O)NC3=O)[C@H]2[C@H](C)O1 [Example 46]	0.78 (≈ 0.441 µg/mL)	> 200	100 (≈ 56.6 µg/mL)	> 200	170	0.39 (≈ 0.221 µg/mL)	0.78 (≈ 0.441 µg/mL)	1.6 (≈ 0.905 µg/mL)	1.6 (≈ 0.905 µg/mL)	6.2 (≈ 3.51 µg/mL)	1.6 (≈ 0.905 µg/mL)
C[C@@H]1CN2c3c(cc4c(N5C(=O)OC[C@@H]5C=NO)noc4c3F)CC3(C(=O)NC(=O)NC3=O)[C@H]2[C@H](C)O1 [Example 74, (2R,4S,4aS)-11-fluoro-8-{(4S)-4-[(hydroxyimino)methyl]-2-oxo-1,3-oxazolidin-3-yl}-2,4-dimethyl-1,2,4,4a-tetrahydro-2′H,6H-spiro[1,4-oxazino[4,3-a][1,2]oxazolo[4,5-g]quinoline-5,5′-pyrimidine]-2′,4′,6′(1′H,3′H)-trione]	0.78 (≈ 0.403 µg/mL)	> 200	100 (≈ 51.6 µg/mL)	> 200	470	1.6 (≈ 0.826 µg/mL)	1.6 (≈ 0.826 µg/mL)	1.6 (≈ 0.826 µg/mL)	6.2 (≈ 3.2 µg/mL)	12 (≈ 6.2 µg/mL)	12 (≈ 6.2 µg/mL)
C#C[C@H]1COC(=O)N1c1noc2c(F)c3c(cc12)CC1(C(=O)NC(=O)NC1=O)[C@H]1[C@H](C)O[C@H](C)CN31 [Example 65]	0.78 (≈ 0.388 µg/mL)	200 (≈ 99.5 µg/mL)	3.1 (≈ 1.54 µg/mL)	> 200	120	0.78 (≈ 0.388 µg/mL)	0.78 (≈ 0.388 µg/mL)	1.6 (≈ 0.796 µg/mL)	0.39 (≈ 0.194 µg/mL)	1.6 (≈ 0.796 µg/mL)	1.6 (≈ 0.796 µg/mL)
C[C@@H]1CN2c3c(cc4c(N5C(=O)OC[C@@H]5c5ccccc5)noc4c3F)CC3(C(=O)NC(=O)NC3=O)[C@H]2[C@H](C)O1 [Example 9, (2R,4S,4aS)-11-Fluoro-2,4-dimethyl-8-[(4S)-2-oxo-4-phenyl-1,3-oxazolidin-3-yl]-1,2,4,4a-tetrahydro-2′H,6H-spiro[1,4-oxazino[4,3-a][1,2]oxazolo[4,5-g]quinoline-5,5′-pyrimidine]-2′,4′,6′(1′H,3′H)-trione]	0.39 (≈ 0.214 µg/mL)	> 200	50 (≈ 27.5 µg/mL)	> 200	710	0.78 (≈ 0.429 µg/mL)	1.6 (≈ 0.879 µg/mL)	1.6 (≈ 0.879 µg/mL)	0.78 (≈ 0.429 µg/mL)	0.78 (≈ 0.429 µg/mL)	12 (≈ 6.59 µg/mL)
C[C@@H]1CN2c3c(cc4c(N5C[C@H](CO)OC5=O)noc4c3F)CC3(C(=O)NC(=O)NC3=O)[C@H]2[C@H](C)O1 [Example 37, (2R,4S,4aS)-11-Fluoro-8-[(5R)-5-(hydroxymethyl)-2-oxo-1,3-oxazolidin-3-yl]-2,4-dimethyl-1,2,4,4a-tetrahydro-2′H,6H-spiro[1,4-oxazino[4,3-a][1,2]oxazolo[4,5-g]quinoline-5,5′-pyrimidine]-2′,4′,6′(1′H,3′H)-trione]	0.39 (≈ 0.196 µg/mL)	> 200	200 (≈ 101 µg/mL)	> 200	120	0.39 (≈ 0.196 µg/mL)	0.39 (≈ 0.196 µg/mL)	0.78 (≈ 0.393 µg/mL)	3.1 (≈ 1.56 µg/mL)	25 (≈ 12.6 µg/mL)	6.2 (≈ 3.12 µg/mL)
